Results as given in ChEMBL document CHEMBL5550216, “Discovery of Triazolopyrimidine Derivatives as Selective P2X3 Receptor Antagonists Binding to an Unprecedented Allosteric Site as Evidenced by Cryo-Electron Microscopy” (J Med Chem, 2024).

Key:
[1] = Metabolic stability in human liver microsomes assessed as compound remaining at 100 uM preincubated for 10 mins followed by NADPH addition and measured after 30 mins by LC-MS/MS analysis; type: ADME, Microsome; conditions: time 40 min, read-out: Stability
[2] = Metabolic stability in rat liver microsomes assessed as compound remaining at 100 uM preincubated for 10 mins followed by NADPH addition and measured after 30 mins by LC-MS/MS analysis; type: ADME, Microsome; conditions: time 40 min, read-out: Stability
[3] = Metabolic stability in mouse liver microsomes assessed as compound remaining at 100 uM preincubated for 10 mins followed by NADPH addition and measured after 30 mins by LC-MS/MS analysis; type: ADME, Microsome; conditions: time 40 min, read-out: Stability
[4] = Permeability of compound at 10 uM incubated for 4 hrs by PAMPA; type: ADME; conditions: read-out: permeability
P2X purinoceptor 3 = molecular target: T1, P2X purinoceptor 3 (Homo sapiens, UniProt P56373); assay: Antagonist activity at human P2X3R expressed in HEK293 cells incubated for 18 hrs by Fluo-4 dye based microplate reader assay
T1 sequence (P56373 whole entry): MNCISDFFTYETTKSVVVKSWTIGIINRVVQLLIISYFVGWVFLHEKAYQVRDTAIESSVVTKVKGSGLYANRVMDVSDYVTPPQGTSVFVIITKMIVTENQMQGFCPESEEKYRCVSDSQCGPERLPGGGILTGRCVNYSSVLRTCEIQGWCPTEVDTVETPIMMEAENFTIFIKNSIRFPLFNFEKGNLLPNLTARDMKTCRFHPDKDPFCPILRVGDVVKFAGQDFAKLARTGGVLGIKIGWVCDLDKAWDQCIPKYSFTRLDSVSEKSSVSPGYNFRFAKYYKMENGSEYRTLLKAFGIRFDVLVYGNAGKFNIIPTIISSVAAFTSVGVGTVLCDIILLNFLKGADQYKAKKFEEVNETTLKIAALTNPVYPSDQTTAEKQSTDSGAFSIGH

[5] = molecular target: T2, P2X2/P2X3 heterotrimeric receptor (Homo sapiens, UniProt P56373+Q9UBL9); assay: Antagonist activity at human P2X2/3R expressed in HEK293 cells incubated for 18 hrs by Fluo-4 dye based microplate reader assay
T2 sequence (Q9UBL9 whole entry): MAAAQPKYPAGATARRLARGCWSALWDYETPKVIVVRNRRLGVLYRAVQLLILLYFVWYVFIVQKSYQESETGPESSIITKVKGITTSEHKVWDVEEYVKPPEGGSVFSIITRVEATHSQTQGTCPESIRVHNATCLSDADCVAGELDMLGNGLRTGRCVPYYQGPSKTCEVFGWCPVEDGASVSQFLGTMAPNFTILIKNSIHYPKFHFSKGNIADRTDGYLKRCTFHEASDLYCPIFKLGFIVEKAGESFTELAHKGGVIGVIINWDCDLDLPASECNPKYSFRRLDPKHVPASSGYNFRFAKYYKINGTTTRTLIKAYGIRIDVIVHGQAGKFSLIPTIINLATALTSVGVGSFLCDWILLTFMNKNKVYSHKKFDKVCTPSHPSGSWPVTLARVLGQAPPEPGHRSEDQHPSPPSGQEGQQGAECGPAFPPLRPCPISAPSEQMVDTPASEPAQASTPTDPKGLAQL
T2 sequence (P56373 whole entry): T1 sequence (P56373 whole entry)

[6] = molecular target: T2, P2X2/P2X3 heterotrimeric receptor; assay: Antagonist activity at human P2X2/3 receptor expressed in HEK293 cells preincubated for 30 mins followed by alpha, beta me-ATP addition and measured for 10 mins by Fluo-8 dye based FLIPR assay
P2X purinoceptor 7 = molecular target: T3, P2X purinoceptor 7 (Homo sapiens, UniProt Q99572); assay: Antagonist activity at human P2X7 receptor expressed in 1321N1 cells incubated for 30 mins in presence of Bz-ATP by Fluo-4 dye based microplate reader assay; type: cell-based
T3 sequence (Q99572 whole entry): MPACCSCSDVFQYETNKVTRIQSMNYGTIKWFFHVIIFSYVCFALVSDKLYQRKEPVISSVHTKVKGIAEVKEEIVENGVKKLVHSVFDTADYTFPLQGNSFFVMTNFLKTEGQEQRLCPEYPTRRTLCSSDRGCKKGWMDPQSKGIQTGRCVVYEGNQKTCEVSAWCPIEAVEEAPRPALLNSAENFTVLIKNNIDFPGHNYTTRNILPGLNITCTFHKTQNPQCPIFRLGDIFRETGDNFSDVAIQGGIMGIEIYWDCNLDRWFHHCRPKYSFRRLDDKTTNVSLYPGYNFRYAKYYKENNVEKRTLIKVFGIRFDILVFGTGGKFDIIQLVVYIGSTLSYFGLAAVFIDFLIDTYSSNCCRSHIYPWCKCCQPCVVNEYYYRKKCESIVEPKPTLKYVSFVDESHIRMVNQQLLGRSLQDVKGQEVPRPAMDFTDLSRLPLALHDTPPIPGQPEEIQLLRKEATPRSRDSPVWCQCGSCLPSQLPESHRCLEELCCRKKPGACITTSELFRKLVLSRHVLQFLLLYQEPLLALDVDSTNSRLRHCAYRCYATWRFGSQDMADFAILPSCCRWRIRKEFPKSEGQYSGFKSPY

P2X purinoceptor 1 = molecular target: T4, P2X purinoceptor 1 (Homo sapiens, UniProt P51575); assay: Antagonist activity at human P2X1 receptor expressed in 1321N1 cells incubated for 30 mins in presence of ATP by Fluo-4 dye based microplate reader assay; type: cell-based
T4 sequence (P51575 whole entry): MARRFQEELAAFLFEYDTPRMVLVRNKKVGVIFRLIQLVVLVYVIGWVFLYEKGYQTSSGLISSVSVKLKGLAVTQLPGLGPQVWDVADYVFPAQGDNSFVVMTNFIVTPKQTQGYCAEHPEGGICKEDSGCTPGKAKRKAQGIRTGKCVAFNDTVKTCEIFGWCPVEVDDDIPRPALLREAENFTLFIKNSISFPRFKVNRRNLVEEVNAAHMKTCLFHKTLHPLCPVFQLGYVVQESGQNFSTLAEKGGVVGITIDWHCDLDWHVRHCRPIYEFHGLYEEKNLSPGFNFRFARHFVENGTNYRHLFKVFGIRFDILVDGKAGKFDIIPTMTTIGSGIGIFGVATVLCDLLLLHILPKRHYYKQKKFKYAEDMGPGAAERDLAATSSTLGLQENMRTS

P2X purinoceptor 4 = molecular target: T5, P2X purinoceptor 4 (Homo sapiens, UniProt Q99571); assay: Antagonist activity at human P2X4 receptor expressed in 1321N1 cells incubated for 30 mins in presence of ATP by Fluo-4 dye based microplate reader assay; type: cell-based
T5 sequence (Q99571 whole entry): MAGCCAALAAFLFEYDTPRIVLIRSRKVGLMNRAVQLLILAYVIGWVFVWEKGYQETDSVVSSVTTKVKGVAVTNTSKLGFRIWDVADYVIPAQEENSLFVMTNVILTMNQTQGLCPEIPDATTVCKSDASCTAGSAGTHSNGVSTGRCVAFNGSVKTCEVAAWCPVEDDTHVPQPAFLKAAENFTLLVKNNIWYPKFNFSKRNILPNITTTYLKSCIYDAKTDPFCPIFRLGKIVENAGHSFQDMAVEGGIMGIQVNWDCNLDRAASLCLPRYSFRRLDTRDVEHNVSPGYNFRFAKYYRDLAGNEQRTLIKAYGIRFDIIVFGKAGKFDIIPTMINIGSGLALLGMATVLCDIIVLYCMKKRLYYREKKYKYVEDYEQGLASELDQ

remaining at 0.5 h, 100 µM [1] [%]	remaining at 0.5 h, 100 µM [2] [%]	remaining at 0.5 h, 100 µM [3] [%]	Papp at 4 h, 10 µM [4] [×10⁻⁶ cm/s]	Structure (SMILES)	other results
28.3	0.2	18	–	CC(=O)N1CCN(c2cc(N[C@H](C)c3ccc4ccccc4c3)n3nc(C4CCC4)nc3n2)CC1	–
33.2	4.2	15.2	–	CC(=O)N1CCN(c2cc(N[C@H](C)c3ccc4ccccc4c3)n3nc(C4CCCC4)nc3n2)CC1	–
–	–	–	< 0.0185	CC(C)(C)NCC(O)COc1cccc2c1CC(O)C(O)C2 (stereo not drawn) [NADOLOL]	–
–	–	–	–	CNC(=O)c1cc(F)c(-c2nc3cc(C)ccn3c2CC2CCCN(C(=O)OC)C2)c(F)c1 (single isomer, unassigned)	IC50 (P2X purinoceptor 3): 0.0155 µM; IC50 [5]: 5.06 µM; IC50 [6]: > 24 µM
–	–	–	5.41	NC(=O)N1c2ccccc2C=Cc2ccccc21 [CARBAMAZEPINE]	–

Structure (SMILES)	remaining at 0.5 h, 100 µM [1] [%]	remaining at 0.5 h, 100 µM [2] [%]	remaining at 0.5 h, 100 µM [3] [%]	Papp at 4 h, 10 µM [4] [×10⁻⁶ cm/s]	other results
C[C@@H](Nc1cc(N2CCN(C(N)=O)CC2)nc2nc(C3CC3)nn12)c1ccc2ccccc2c1	50.2	0.3	50.6	< 0.0185	IC50 (P2X purinoceptor 7): > 10 µM; IC50 (P2X purinoceptor 1): 4.28 µM; IC50 (P2X purinoceptor 4): > 10 µM
